Where two headings read alike, the source gives them in different places. Marks after values point to notes of the source that are not given here.

In one data set the test system is renal tubular epithelium. As to conditions: cited from earlier work.
The conditions of data set [1]: cited from earlier work; for Total daily oral dose may reach: as dietary supplement (HP-β-cyclodextrin: as oral pharmaceutical); for NOAEL (No Observed Adverse Effect Level): oral intake.
Data set [2] concerns differentiated neuroblastoma cells (SH-SY5Y). Kind of data set: Neuroprotection against H2O2, postincubation variant. It counts as cell-based, human. As to conditions: 1 h and 3 h H2O2 at EC50, then 24 h post-incubation.
Procedure: (§1) Human neuroblastoma cells of the SH-SY5Y lineage were chosen to perform the experiment.
Two time variants of incubation with hydrogen peroxide in differentiated neuroblastoma culture, i.e. 1 h and 3 h, were used in post-incubation.
Data set [3] has as its system differentiated SH-SY5Y neuroblastoma cells. Kind of data set: Neuroprotection against H2O2, coincubation variant. The note with it: for Increase in viability relative to cells treated with hydrogen peroxide: 24 h co-incubation, H2O2 at EC50; for Improvement in cell viability relative to the positive control: coincubation with H2O2. It counts as cell-based, human.
Source text: as §1
(§2) Based on the literature review and research work, hydrogen peroxide H2O2 was chosen as the neurotoxin.
Data set [4] relates to differentiated SH-SY5Y cells. Briefly: Neuroprotection against H2O2, preincubation variant. It counts as cell-based, human.
Source text: as §1, §2
The test system of data set [5] is differentiated SH-SY5Y neuroblastoma cells. Briefly: Early apoptosis of H2O2-treated cells, coincubation variant. It counts as cell-based, human. The note with it: 24 h coincubation with H2O2. The protocol:
A coincubation variant was used, i.e. simultaneous administration of betulin or a reference drug and H2O2. H2O2 concentrations were EC50 or EC80 (resulting in a 50% and 80% reduction in cell viability in viability assays). Betulin concentrations were 1 μM and 5 μM, while NAC concentrations were 0.1 mM and 1 mM. The coincubation time of the test substances with H2O2 was 24 h.

Data set [6] deals with rats with Alzheimer-like neurodegeneration. As to conditions: Morris water maze, 5th day of testing; AlCl3 rats.
Procedure: (§3) The study was conducted on Wistar rats weighing 220-250 g. All animals were subjected to two weeks of observation prior to the experiment to exclude infection. Rats were housed in standard cages, 5 individuals in each. The animals stayed in a room with a temperature of 22±2° C., air humidity 60-70% and in natural lighting (12/12 in a day/night cycle).
(§4) The Alzheimer's disease model was induced by administering aluminum chloride AICl3 (200 mg/kg body weight, i.g.) to the animals for 120 days. […] Animals were assigned to groups: control group receiving saline (sham operation), group with AlCl3 without treatment and group with AlCl3 receiving betulin (100 mg/kg/day, i.g., within the last 50% of the days of the experiment) and betulin in the complex with cyclodextrin (100 mg/kg/day, i.g., in the last 50% of the days of the experiment). Betulin or betulin in a complex with cyclodextrin was administered orally with an intragastric probe in a 2% starch emulsion, reflecting the composition of the finished preparation given in the examples of use.
A further data set has as its system Aβ1-42 protein. As to conditions: 100 mg/kg/day, i.g.
Data set [7] has as its system differentiated SH-SY5Y neuroblastoma cells. The note with it: XTT assay, tested 1-30 μM. Background: Formazan colour is commonly taken as a measure of viable cells.
Source text: as §1
Data set [8] has as its system oxidative stress parameters (GSH, GSSG, G6PD, glutathione reductase, glutathione-S-transferase, GPO). Kind of data set: Glutathione content and antioxidant enzymes activities in brain hemispheres during Al-intoxication. The class given is in vivo, Wistar rats. The source says:
Influence of Betulin on Oxidative Stress Parameters in Rats with Alzheimer-Like Neurodegeneration

In the next data set the test system is TNFα. The note with it: 100 mg/kg/day, i.g.
In another data set the test system is APLP2. The note with it: 100 mg/kg/day, i.g.
The test system of data set [9] is rats with Alzheimer-like neurodegeneration. Kind of data set: Beam walking test (motor coordination). The note with it: 5th day of testing, AlCl3 rats. The class given is in vivo, Wistar rats.
Procedure: as §3, §4
[10] abbreviates: rat hippocampal homogenate, AlCl3 model.
Setting [11] is: brain hemispheres, Al-intoxication.

Procedure for APLP2: as §3
(§5) The Alzheimer's disease model was induced by administering aluminum chloride AICl3 (200 mg/kg body weight, i.g.) to the animals for 120 days. […] Animals were assigned to groups: control group receiving saline (sham operation), group with AlCl3 without treatment and group with AlCl3 receiving betulin (100 mg/kg/day, i.g., within the last 50% of the days of the experiment) and betulin in the complex with cyclodextrin (100 mg/kg/day, i.g., in the last 50% of the days of the experiment).
(§6) On the last day of the experiment, the animals were anaesthetized. Brains were quickly collected and then divided into different areas. The entire procedure was carried out in a cold room (+4° C.) on ice, and the samples were frozen in liquid nitrogen and stored in an ultra-low temperature refrigerator for further analysis.
(§7) In order to measure rat brain damage caused by aluminum chloride, biochemical determinations were carried out on the collected brain tissue fragments.
Procedure for Aβ1-42 protein: as §3, §5, §6, §7
Procedure for TNFα: as §3, §5, §6, §7

As for `OC[C@H]1O[C@@H]2O[C@H]3[C@H](O)[C@@H](O)[C@@H](O[C@H]4[C@H](O)[C@@H](O)[C@@H](O[C@H]5[C@H](O)[C@@H](O)[C@@H](O[C@H]6[C@H](O)[C@@H](O)[C@@H](O[C@H]7[C@H](O)[C@@H](O)[C@@H](O[C@H]8[C@H](O)[C@@H](O)[C@@H](O[C@H]9[C@H](O)[C@@H](O)[C@@H](O[C@H]1[C@H](O)[C@H]2O)O[C@@H]9CO)O[C@@H]8CO)O[C@@H]7CO)O[C@@H]6CO)O[C@@H]5CO)O[C@@H]4CO)O[C@@H]3CO` [γ-cyclodextrin], the “Dose showing only reversible vacuolation in the renal tubular epithelium” value in the data set with renal tubular epithelium (rats, high doses) was over 600 mg/kg. Further, in data set [1], the “Total daily oral dose may reach” value is reported as 10,000 mg/day and the “NOAEL (No Observed Adverse Effect Level)” value is recorded as 100 mg/kg/day.

As for `OC[C@H]1O[C@@H]2O[C@H]3[C@H](O)[C@@H](O)[C@@H](O[C@H]4[C@H](O)[C@@H](O)[C@@H](O[C@H]5[C@H](O)[C@@H](O)[C@@H](O[C@H]6[C@H](O)[C@@H](O)[C@@H](O[C@H]7[C@H](O)[C@@H](O)[C@@H](O[C@H]1[C@H](O)[C@H]2O)O[C@@H]7CO)O[C@@H]6CO)O[C@@H]5CO)O[C@@H]4CO)O[C@@H]3CO` [α-cyclodextrin], in the data set on renal tubular epithelium (rat, in vivo), the “Renal toxicity after parenteral administration (in words)” value is “renal toxicity at relatively low doses”. For the same compound, the “Total daily oral dose may reach” value in [1] is 6000 mg/day.

As for HP-β-cyclodextrin, the “Total daily oral dose may reach” value in data set [1] was 8000 mg/day.

For `CC(=O)N[C@@H](CS)C(=O)O` [NAC, N-acetyl-L-cysteine, reference compound], the “Protective effect after H2O2 treatment (in words)” value in data set [2] is on record as “induced a protective effect in a NAC concentration-dependent manner”. Further, the “Increase in viability relative to cells treated with hydrogen peroxide” value in data set [3] (NAC 0.01 mM) amounted to 12%; in data set [3] (NAC 0.1 mM), 40%; in data set [3] (NAC 1 mM), 54%. In addition, in [4] (24 h preincubation, NAC 2.5 mM to 0.01 mM, H2O2 at EC50), the “Protective effect against H2O2 (in words)” value is “statistically significant (####p<0.001) protective effect on cells (no decrease in viability)”. The entries for the “Induction of early apoptosis (percentage of apoptotic cells)” value in data set [5] (NAC 0.1 mM) and in [5] (NAC 1 mM) were 12.2% and 12.0%, respectively.

As to RM-β-cyclodextrin, in the data set on renal tubular epithelium (parenteral administration), the “Renal toxicity after parenteral administration (in words)” value is “renal toxicity at relatively low doses”.

As to `C=C(C)[C@@H]1CC[C@]2(CO)CC[C@]3(C)[C@H](CC[C@@H]4[C@@]5(C)CC[C@H](O)C(C)(C)[C@@H]5CC[C@]43C)[C@@H]12` [betulin], in [6], the “Time spent in a target quadrant” value is 26 ± 8^ab seconds and the “Time to reach the platform” value is listed as 38 ± 7^b seconds. For the same compound, the “Protective effect after H2O2 treatment (in words)” value in data set [2] was “no increase in viability relative to the positive control”. Moreover, in data set [3] (betulin 1 μM), the “Improvement in cell viability relative to the positive control” value was 27%. For the same compound, the “Improvement in cell viability relative to the positive control” value in data set [3] (betulin 5 μM) is 18%. Moreover, the “Effect on β-amyloid concentration in hippocampal homogenates (in words)” value in the data set on Aβ1-42 protein is “reduced the concentration of β-amyloid”. In the data set with Aβ1-42 protein (setting [10]), the “Protein Aβ1-42” value is 83.25 ± 6.40^ab pg/100 mg. Also, in data set [7], the “Concentration above which a cytotoxic effect is induced (viability below the 70% threshold)” value was over 20 µM. Further, the “Protective effect against H2O2 (in words)” value in data set [4] (betulin 1, 2, 5 and 10 μM, toxin at EC50) is on record as “statistically significant protective effect”. The “Protective effect against H2O2 (in words)” value in data set [4] (betulin 15 and 20 μM) was “no protective effect”. For the same compound, in data set [8] (animals with induced AD), the “Effect on GSH, GR and GSTs activity (in words)” value is reported as “significant increase in the activity of all enzymes”; the “Effect on GSSG, G6PD and GPO activity (in words)” value is “significant decrease in the activity of these enzymes”. Further, in data set [8] (setting [11]), the G6PD is 28.61 ± 1.62^b nmol NADPH/min/mg protein, the GPO was 33.63 ± 2.09^b umol GSH/min/mg protein, the GSH is on record as 26.09 ± 2.19^b nmol/mg protein and the GSSG is 0.112 ± 0.002^b nmol/mg protein. In [8] (setting [11]), the Glutathione reductase was determined as 11.59 ± 1.39 nmol NADPH/min/mg protein and the Glutathione-S-transferase is recorded as 129.90 ± 10.45^b nmol CDNB/min/mg protein. In addition, the “Percentage of apoptotic cells” value in data set [5] (betulin 1 μM) amounted to 2.7%. In addition, the “Percentage of apoptotic cells” value in [5] (betulin 5 μM) is on record as 2.5%. Moreover, in the data set with TNFα, the “Effect on TNFα concentration in hippocampal homogenates (in words)” value is “reduced the concentration of TNFα”. The TNF-α in the data set on TNFα (setting [10]) is 5.88 ± 0.39 ^b pg/mg. For the same compound, in the data set with APLP2, the “Effect on APLP2 concentration in hippocampal homogenates (in words)” value is listed as “reduced the concentration of APLP2”. Moreover, in the data set with APLP2 (rat brain hippocampus homogenate, AlCl3 model), the APLP2 is recorded as 588.1 ± 36.4^ab pg/100 mg. Besides, in data set [9], the “Percent of successful trials” value is 100^b % and the “Time to reach the shelter” value is on record as 18.6 ± 3.6^ab seconds.

Regarding `OC[C@H]1O[C@@H]2O[C@H]3[C@H](O)[C@@H](O)[C@@H](O[C@H]4[C@H](O)[C@@H](O)[C@@H](O[C@H]5[C@H](O)[C@@H](O)[C@@H](O[C@H]6[C@H](O)[C@@H](O)[C@@H](O[C@H]7[C@H](O)[C@@H](O)[C@@H](O[C@H]8[C@H](O)[C@@H](O)[C@@H](O[C@H]1[C@H](O)[C@H]2O)O[C@@H]8CO)O[C@@H]7CO)O[C@@H]6CO)O[C@@H]5CO)O[C@@H]4CO)O[C@@H]3CO` [β-cyclodextrin], in data set [1], the “Total daily oral dose may reach” value is given as 500 mg/day and the “NOAEL (No Observed Adverse Effect Level)” value is 10 mg/kg/day.

Values taken from US20250205249A1, “COMPOSITION FOR USE IN ENHANCING, BOOSTING, RESTORING AND/OR PREVENTING THE DECLINE OF COGNITIVE FUNCTIONS, ADJUVANT COMPOSITION, METHOD FOR USING THE COMPOSITION OR ADJUVANT COMPOSITION, AND KIT HAVING THE COMPOSITION OR ADJUVANT COMPOSITION” (Instytut Badawczy Innowacyjno Rozwojowy "Biotomed" Sp. Z O.O, priority 2023, published 2025).
